Experimental data taken from patent publication US9018188B2, “MicroRNA inhibitors” (Ottawa Hospital Research Institute, priority 2011, dated 2015).

Key:
Format in all cases: in vivo, mouse
[1] = Body weight and fat depot weights after ASO treatment during TA muscle regeneration
Protocol: Treated and control C57BL/6 male mice were raised on either RD or HFD in individual cages at 22° C. (n=5 per treatment per diet group). In both diet groups, miR-133 ASO treated mice were obviously leaner than the control mice at 4-month after treatment (FIG. 6A).
To induce brown adipocytes in vivo, 10 mg/mL Cardiotoxin solution (50 μl) was intramuscularly injected into TA muscles of 10-week old Pax7-CreER/R26R-tdTomato mice (FIG. 4) or C57BL/6 mice (FIG. 5 and FIG. 6). Alternatively, frozen injury was performed by applying liquid nitrogen cooled tweezers tips directly onto the anterior sides of TA muscles. After 3 days, 20 μg of miR-133 antagomiR or control antagomiR in saline (50 μl) was intramuscularly injected into the same injured TA muscles (on right hindlimbs). To test efficacy of miR-133 ASO in intact muscles, saline, instead of Cardiotoxin, was injected to TA muscles before miR-133 ASO administration (FIGS. 4A, 4B). miR-133 antagomiR and scramble antagomiR were designed as previously described (Krutzfeldt et al., 2005).

[2] = system: TA muscles; assay: [18F]-FDG PET imaging of treated TA muscles; conditions: after CL316,243-stimulated sympathetic activation; normalized to contralateral TA muscles; 2 months after treatment
Text: Metabolically active BAT has been identified in adult human by [^18F]-fluorodeoxyglucose positron emission tomography ([^18F]-FDG PET), due to dramatic glucose uptake by this tissue after sympathetic activation (Nedergaard et al., 2007). To visualize active brown adipose tissue within muscle, Applicant performed [^18F]-FDG PET imaging on control- or miR-133 ASO treated mice (n=5 for 133 ASO treated mice, n=4 for control treated muscle; 2 months after treatment) after acute sympathetic activation by selective β3-adrenergic receptor agonist, CL316,243 (FIG. 5E). Applicant observed a dramatic increase of FDG uptake in miR-133 ASO treated TA muscles compared to contralateral TA muscles or TA muscles within control ASO treated mice. To rule out possible direct and indirect effects of CL316,243 on glucose/FDG uptake by skeletal muscle cells, Applicant normalized FDG activities derived from ROIs of treated TA muscles to those of contralateral TA muscles (FIG. 5F). […] Such a drastic increase was not observed without the sympathetic activation preceding anesthesia (baseline).
Mouse PET imaging was performed with an Inveon PET scanner (Siemens Preclinical Solutions, Knoxyille, Tenn., USA). Control- or miR-133 ASO treated C57BL/6 male mice fed with regular diet were anesthetized under 2% isoflurane. […]

[3] = system: TA muscles; assay: High-resolution respirometry on TA muscles after ASO treatment
Text: To quantify bioenergetic effects of miR-133 ASO induced BAT in muscle, Applicant performed high-resolution respirometry on TA muscles after 2 months of either control- or miR-133 ASO treatment (C57BL/6 male fed on RD, n=6 in each treatment group). […] This marked difference in the response to FA is consistent with reported acute activation of mitochondrial respiration rates in brown adipocytes exposed to fatty acids (Matthias et al., 2000).
Surgically extracted tibialis anterior (TA) and contralateral soleus (SOL) muscles were immediately placed in ice-cold biopsy preservation solution (BIOPS) containing […], 7.23 mM K2EGTA buffer, 0.1 μM free calcium, 20 mM imidazole, 20 mM taurine, 50 mM 2-(N-Morpholino)ethanesulfonic acid hydrate (K-MES), 0.5 mM dithiothreitol (DTT), 6.56 mM […], 5.77 mM ATP, and 15 mM phosphocreatine (pH 7.1). The TA muscle was cut longitudinally into 4 equal parts, 2 of which were assessed by respirometry as intact cells and 2 after chemical permeabilization of the sarcolemma. The SOL muscle was cut in half longitudinally and both sections were permeabilized before respirometry. Prior to permeabilization muscle samples were gently dissected with two pairs of sharp forceps, achieving a high degree of fibre separation verified microscopically. Chemical permeabilization was achieved by incubation of the fibres with saponin (50 μg/mL) in 2 mL of BIOPS for 30 minutes at 4° C. (Gnaiger, 2009b). Permeabilized samples were then rinsed with a mitochondrial respiration medium (MiR05) containing 0.5 mM EGTA, 3 mM MgCl2.6H2O, 60 mM K-lactobionate, 20 mM taurine, 10 mM KH2PO4, 20 mM HEPES, 110 mM sucrose, and 1 g/L bovine serum albumin (pH 7.1).
Muscle bundles (both intact TA, and permeabilized TA and SOL) were blotted and measured for wet weight in a balance controlled for constant relative humidity, providing hydration consistency and stability of weight measurements. Each sample was then placed into a single chamber of the high-resolution Oroboros Oxygraph-2k (Oroboros, Innsbruck, Austria) containing MiR05 solution and measured at 37° C. The Oxygraph is a two-chamber titration-injection respirometer with an oxygen detection limit of up to 0.5 pmol·sec^−1·mL^−1. Standardized instrumental calibrations were performed to correct for back-diffusion of oxygen into the chamber from the various components, leak from the exterior, and sensor oxygen consumption. Oxygen flux was resolved by software allowing nonlinear changes in the negative time derivative of the oxygen concentration signal (Oxygraph 2k, Oroboros, Innsbruck, Austria).
Leak respiration was induced with the addition of malate (2 mM) and octanoyl carnitine (0.2 mM). This state represents the oxygen consumption of an unaltered and intact electron transport system (ETS) without the exogenous provision of adenylates. In the LN state, the chemiosmotic gradient is at maximum and oxygen flux represents proton leak, slip, and cation cycling in muscle (Pesta and Gnaiger, 2011) and maximal respiration in BAT induced by fatty acids (Matthias et al. 2000). Further uncoupling of the ETS in muscle cells was assessed with the proton ionophore, carbonyl cyanide p-(trifluoromethoxy) phenylhydrazone (FCCP; 0.7 μM per titration up to concentrations ranging from 2.5-4 μM) to achieve a maximal uncoupling response.
Leak respiration in the absence of adenylates (LN) was induced with the addition of malate (2 mM) and octanoyl carnitine (0.2 mM). Lipid oxidative phosphorylation capacity (PETF) and maximal electron flow through electron transferring-flavoprotein (ETF) was determined following the addition of ADP (5 mM). […]

Substance: *mA*mUmAmGmCmUmGmGmUmUmGmAmAmGmGmGmGmAmC*mC*mA*mA*mAChl [miR-133 ASO]
- gain in body weight ([1]; 4-month period after ASO administration, RD or HFD, C57BL/6 male): reduced gain in body weight
- igWAT and epiWAT weights ([1]; mouse, in vivo): significant reduction
- mass of iBAT depots and treated TA muscles ([1]; mouse, in vivo): unaffected
- increase of glucose/FDG uptake compared to control [2]: 1.3 fold
- additional energy expenditure in the treated TA muscle from uncoupling respiration ([3]; by calculation): 0.3 cal/h/mg
- higher respiration rate versus control ([3]; intact TA muscle with FA): 1.75 fold
- mitochondrial respiration rate after titration of FA (octanoyl carnitine), uncoupled/intact cells ([3]; intact TA muscle, 2 months after treatment, C57BL/6 male on RD, n=6): 13.5±1 pmol·sec^−1·lo^−1
- respiration rate in response to ADP (state-3 respiration mediated by ETF) ([3]; permeabilized TA muscle): unchanged
- state 3 respiration rates with complex I+II substrates (P I+II) versus control ([3]; permeabilized TA muscle, addition of succinate): no difference
- electron transport through complex I (NADH dehydrogenase) respiration rate ([3]; permeabilized TA muscle, after titration of glutamate, p=0.2 versus control): 33±3 pmol·sec^−1lo^−1
